Assay results reported in PMC11237774, “On-target, dual aminopeptidase inhibition provides cross-species antimalarial activity” (mBio, 2024).
Where two headings read alike, the source gives them in different places.

Columns and labels:
[1] = In vivo exposure after single oral dosing; conditions: male, Swiss outbred, mouse, plasma, 50 mg/kg
Experimental: This produced a uniform off-white milky suspension of pH 6.0. […] Samples were collected by either submandibular bleed (~120 µL) or terminal cardiac puncture (under inhaled isoflurane anesthesia). Blood samples were centrifuged immediately, and supernatant plasma was removed and stored at −80°C until analysis as described above.

PfA-M17 = molecular target: T1, PfA-M17 (Plasmodium falciparum, UniProt Q8IL11); experiment: Recombinant aminopeptidase fluorescence assay (H-Leu-NHMec); format: biochemical, P. falciparum; conditions: Pf M17, Morrison equation; read-out: Ki^(app) ± SEM
T1 construct: made in house
Experimental: (§1) Inhibition of aminopeptidase activity assays were performed against nine aminopeptidases: the M1 alanyl and M17 leucyl aminopeptidases from P. falciparum (PfA-M1; PfA-M17), P. vivax (Pv-M1; Pv-M17), and P. berghei (Pb-M1; Pb-M17), and three human M1 homologs: LTA4H (OriGene TP307617), ERAP1 (OriGene TP314469), and ERAP2 (Creative BioMart ERAP2-304H). The Plasmodium enzymes were produced recombinantly as described previously ([16], [17]), and the human recombinant enzymes were purchased from commercial suppliers as indicated.
(§2) The concentration of H-Leu-NHMec in the assay was held constant for each enzyme and ranged from 10 to 100 µM, depending on the enzyme. Reactions were measured at 37°C in white 384-well plates in a total volume of 25 or 50 µL using a spectrofluorimeter (BMG FLUOstar) with excitation at 355 nm and emission at 460 nm. The fluorescence signal was continuously monitored until a final steady-state velocity, v, was obtained. Inhibition constants were calculated from biological triplicates made from three different protein preparations.
(§3) Substrate concentrations were selected to allow sensitive detection of enzyme activity while not exceeding the Km for each enzyme. A compound concentration range was selected to obtain a complete inhibition curve (0%–100 %) in biological triplicate. Where possible, the Ki values were calculated by plotting the initial rates versus inhibitor concentration and fitting to the Morrison equation for tight-binding inhibitors in GraphPad Prism (V.8.4.1; non-linear regression method).

Pf3D7 = experiment: Parasite killing rate (wash-out) assay; format: cell-based, P. falciparum; conditions: washout after 24 or 48 h of treatment, 10× EC50, parasites traversed a trophozoite stage
Experimental: Assays were performed as previously described ([7]). […] Parasite cultures incubated for 48 h were fed at 24 h with fresh media containing compound. […] Once thawed, cultures were analyzed using SYBR Green I as described above. Parasite viability was determined as a percentage of vehicle-treated controls, and experiments were performed in four biological replicates.

[2] = Plasma protein binding by ultracentrifugation; format: in vitro ADME; conditions: plasma (10% plasma diluted with PBS), pH 7.4
Experimental: (§4) Human plasma was obtained from the Volunteer Blood Donor Registry (Walter & Eliza Hall Institute, Melbourne, Australia), rat plasma was from male Sprague-Dawley rats (Animal Resource Centre, Perth, Western Australia) and mouse plasma was procured as described above. RPMI-1640 media supplemented with 25 mM HEPES, 2 g/L sodium bicarbonate, and 100 mg/L neomycin were additionally supplemented with 5 […] on the day prior to binding assessment. […] Additional aliquots of spiked matrix were maintained at 37°C for 4.2 h but not centrifuged to serve as controls for stability assessment and to obtain a measure of the total concentration in each matrix. Following centrifugation, aliquots of the protein-free supernatant and the non-centrifuged matrix controls were “matrix matched” by addition of an equal volume of the opposite medium (i.e., either blank buffer or blank matrix) and assayed as described above with comparison to calibration standards prepared in 50% matrix/50% PBS.

[3] = Binding to Albumax medium by ultracentrifugation; format: in vitro ADME
Experimental: as §4

[4] = Metabolic stability in cryopreserved hepatocytes; format: in vitro ADME; conditions: pH 7.4, read-out: in vitro hepatocyte CLint
Experimental: (§5) Samples were collected over the incubation period, quenched by the addition of an equal volume of acetonitrile, and analyzed using a Waters Acquity UPLC and Xevo G2 QTOF mass spectrometer with positive electrospray ionization under the MS^E mode. The natural log of the substrate concentration was plotted against the incubation time to determine the first-order degradation rate constant which was normalized to the microsomal protein concentration to give the in vitro intrinsic clearance (in vitro CLint, µL/min/mg microsomal protein). […] Cell viability was determined by Trypan Blue exclusion. At various times over the incubation period, samples were quenched with the addition of an equal volume of acetonitrile and analyzed as described above. Metabolite identification was conducted by accurate mass and tandem mass spectrometry (MS/MS) analysis.

[5] = system: human M1 aminopeptidase insulin-regulated aminopeptidase (IRAP); parameters: method as in PMID 30537832; conditions: tested up to 200 µM; cited from earlier work
[6] = Metabolic stability in liver microsomes; format: in vitro ADME; conditions: read-out: in vitro microsomal CLint
Experimental: as §5

[7] = molecular target: human aminopeptidase N (APN or CD13); parameters: method as in PMID 30537832; conditions: cited from earlier work
K1 = experiment: microbe, parasite or virus in culture; format: cell-based, P. falciparum; conditions: Plasmodium falciparum, read-out: EC50 nM (mean)
Experimental: In vitro testing was performed using the modified [^3H]hypoxanthine incorporation assay, as previously reported ([34]). The specific mutations in the field isolates (see Table 1, top six strains) have been previously described ([35], [36]), as have the specific mutations in the laboratory-selected Dd2 parasites (see Table 1, remaining five strains) ([36]).

Plasma stability = format: in vitro ADME; conditions: 37°C
Experimental: After centrifugation, the supernatant was collected and stored at −80°C until analysis. Sample analysis was conducted using a Waters Acquity UPLC and Quattro Premier mass spectrometer operated in a positive electrospray ionization mode with multiple-reaction monitoring (transition [m/z] 395.27 > 362.28, cone voltage 20 V, CID 7 V). […] The injection volume was 3 µL, and the flow rate was 0.4 mL/min. Concentrations were determined by comparison to a calibration curve prepared in blank plasma and processed in the same way as for the samples.

Pv-M17 = molecular target: T2, Pv-M17 (Plasmodium vivax, UniProt A5K3U9); experiment: Recombinant aminopeptidase fluorescence assay (H-Leu-NHMec); format: biochemical, P. vivax; conditions: Pv M17, Morrison equation; read-out: Ki^(app) ± SEM
T2 construct: made in house
Experimental: as §1, §2, §3

T2 sequence (A5K3U9 74-621): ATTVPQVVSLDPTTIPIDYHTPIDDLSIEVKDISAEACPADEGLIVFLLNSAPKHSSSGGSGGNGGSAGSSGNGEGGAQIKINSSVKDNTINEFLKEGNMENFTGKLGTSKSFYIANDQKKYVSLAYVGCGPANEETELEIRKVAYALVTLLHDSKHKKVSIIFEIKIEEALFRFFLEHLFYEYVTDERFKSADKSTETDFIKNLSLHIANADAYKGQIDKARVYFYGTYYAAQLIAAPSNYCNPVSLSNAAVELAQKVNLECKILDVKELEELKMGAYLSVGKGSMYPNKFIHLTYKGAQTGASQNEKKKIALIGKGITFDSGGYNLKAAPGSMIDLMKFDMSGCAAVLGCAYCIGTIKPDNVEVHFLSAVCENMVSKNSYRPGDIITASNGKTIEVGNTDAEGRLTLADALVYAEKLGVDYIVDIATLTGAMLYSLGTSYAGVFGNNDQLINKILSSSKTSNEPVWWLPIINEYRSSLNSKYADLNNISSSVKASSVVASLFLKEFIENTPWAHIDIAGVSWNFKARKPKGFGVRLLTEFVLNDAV
T1 sequence (Q8IL11 84-605): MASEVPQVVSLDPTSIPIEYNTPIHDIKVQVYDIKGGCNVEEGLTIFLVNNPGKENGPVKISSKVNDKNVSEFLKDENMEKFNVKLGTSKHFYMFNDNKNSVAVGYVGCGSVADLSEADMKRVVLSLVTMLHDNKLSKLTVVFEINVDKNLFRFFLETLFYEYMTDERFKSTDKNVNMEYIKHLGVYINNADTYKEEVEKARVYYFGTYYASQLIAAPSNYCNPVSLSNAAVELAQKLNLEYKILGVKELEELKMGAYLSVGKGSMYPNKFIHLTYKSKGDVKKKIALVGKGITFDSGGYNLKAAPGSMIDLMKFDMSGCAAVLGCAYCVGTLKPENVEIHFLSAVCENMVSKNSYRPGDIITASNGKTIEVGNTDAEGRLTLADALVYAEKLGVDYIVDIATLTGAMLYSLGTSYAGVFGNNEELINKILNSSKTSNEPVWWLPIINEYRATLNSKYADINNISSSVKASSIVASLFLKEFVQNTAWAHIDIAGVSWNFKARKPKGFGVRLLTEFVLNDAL

Q: What does the source list for `CC(C)(C)CC(=O)NC(C(=O)NO)c1ccc(-c2cc(F)c(F)c(F)c2)cc1` (stereo not shown) [MMV1557817, N-(2-(hydroxyamino)−2-oxo-1-(3′,4′,5′-trifluoro-[1,1′-biphenyl]-4-yl)ethyl)-3,3-dimethylbutanamide]?
A: AUC(0-inf) [1]: 15.2 µM·h; AUC(0-t) [1]: 14.9 µM·h; Cmax [1]: 5.2 µM; Tmax [1]: 0.5 h; half-life [1]: 4.3 h; Ki (PfA-M17): 112 nM; parasite survival (Pf3D7): less than 10%; fraction unbound at 4.2 h ([2]; male, Sprague-Dawley, rat plasma): 0.022; fraction unbound at 4.2 h ([2]; mouse plasma): 0.023; unbound in Albumax medium ([3]; Albumax medium): 15.5%; Albumax media binding ([3]; Albumax medium used for in vitro activity assessment): 84.5%; hepatocyte CLint at 1 µM ([4]; human cryopreserved hepatocytes): 2 µL/min/1e6 cells; hepatocyte CLint at 1 µM ([4]; rat cryopreserved hepatocytes): 4 µL/min/1e6 cells; off-target inhibition [5]: limited off-target inhibitory affects; microsomal CLint at 1 µM ([6]; human liver microsomes): 11 µL/min/mg; microsomal CLint at 1 µM ([6]; mouse liver microsomes): 23 µL/min/mg; microsomal CLint at 1 µM ([6]; rat liver microsomes): 29 µL/min/mg; Ki [7]: 300 nM; EC50 (K1): 26 nM; remaining at 4 h (Plasma stability; human plasma): 97%; remaining at 4 h (Plasma stability; mouse plasma): 93%; Ki (Pv-M17): 208 ± 20 nM
